From patent publication US10894784B2, “Heteroarylbenzimidazole compounds” (BAYER PHARMA AKTIENGESELLSCHAFT, priority 2015, dated 2021) come the findings set out here.

Molecules are shown by their SMILES.

One may read the IC50 as the midpoint of a concentration-inhibition curve.

For the assay, the target named is TBK1 (Homo sapiens (Human), UniProt Q9UHD2). As to the kind of experiment: TBK1 low ATP kinase assay (in vitro assay 1). The class given is biochemical. To be noted: in vitro assay 1, read-out: TBK1 low ATP kinase assay IC50.
TBK1, sequence (Q9UHD2 whole entry): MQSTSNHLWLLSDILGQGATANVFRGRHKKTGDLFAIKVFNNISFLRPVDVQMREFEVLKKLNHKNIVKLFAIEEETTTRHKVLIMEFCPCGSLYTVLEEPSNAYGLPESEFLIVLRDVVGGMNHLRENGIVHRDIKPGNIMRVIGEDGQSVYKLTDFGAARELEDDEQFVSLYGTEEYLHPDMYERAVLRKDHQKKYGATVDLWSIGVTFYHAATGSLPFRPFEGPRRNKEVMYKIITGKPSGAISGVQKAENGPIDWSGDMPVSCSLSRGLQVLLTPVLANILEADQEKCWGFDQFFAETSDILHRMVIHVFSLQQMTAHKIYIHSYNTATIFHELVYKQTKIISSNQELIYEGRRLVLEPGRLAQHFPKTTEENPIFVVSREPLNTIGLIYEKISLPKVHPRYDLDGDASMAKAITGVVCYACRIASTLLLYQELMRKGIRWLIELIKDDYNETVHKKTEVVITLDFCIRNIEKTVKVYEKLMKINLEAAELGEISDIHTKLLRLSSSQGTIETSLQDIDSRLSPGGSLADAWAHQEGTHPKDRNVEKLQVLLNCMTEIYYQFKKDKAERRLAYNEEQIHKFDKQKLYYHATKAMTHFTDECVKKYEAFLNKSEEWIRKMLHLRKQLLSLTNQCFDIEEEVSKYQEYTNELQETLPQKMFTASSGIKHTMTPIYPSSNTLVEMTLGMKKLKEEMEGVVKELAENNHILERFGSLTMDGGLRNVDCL

Consider `CC(C)(C)OC(=O)N1CCN(Cc2ccnc(Nc3nc4ccc(-c5ccnc(N6CCCC6)n5)cc4[nH]3)c2)CC1` [Example 177.01, tert-butyl 4-{[2-({6-[2-(pyrrolidin-1-yl)pyrimidin-4-yl]-1H-benzimidazol-2-yl}amino)pyridin-4-yl]methyl}piperazine-1-carboxylate], for which the IC50 came out at 227 nM.

Regarding `COCCCNc1cc(-c2ccc3nc(Nc4cc(CN5CCN(C(=O)CC(F)(F)F)CC5)ccn4)[nH]c3c2)ncn1` [Example 90.02, 3,3,3-trifluoro-1-[4-({2-[(6-{6-[(3-methoxypropyl)amino]pyrimidin-4-yl}-1H-benzimidazol-2-yl)amino]pyridin-4-yl}methyl)piperazin-1-yl]propan-1-one], the 50% inhibitory concentration (IC50) stood at 11 nM.

Take `CC(c1ccnc(Nc2nc3ccc(-c4cc(N5CCCC5)ncn4)cc3[nH]2)c1)N1CCN(C(=O)C(C)(C)O)CC1` (single isomer, unassigned) [Example 117.07, 2-hydroxy-2-methyl-1-(4-{(1R or 1S)-1-[2-({6-[6-(pyrrolidin-1-yl)pyrimidin-4-yl]-1H-benzimidazol-2-yl}amino)pyridin-4-yl]ethyl}piperazin-1-yl)propan-1-one]: the IC50 is 2.7 nM.

As for `O=C(C1CCC1)N1CCN(Cc2ccnc(Nc3nc4ccc(-c5cnn(CC(F)(F)F)c5)cc4[nH]3)c2)CC1` [Example 58.01.01, cyclobutyl(4-{[2-({6-[1-(2,2,2-trifluoroethyl)-1H-pyrazol-4-yl]-1H-benzimidazol-2-yl}amino)pyridin-4-yl]methyl}piperazin-1-yl)methanone], the IC50 amounted to 12.8 nM.

For the compound `CC(c1ccnc(Nc2nc3ccc(-c4cnn(CC5CC5(F)F)c4)cc3[nH]2)c1)N1CCN(C(=O)C2CC2)CC1` (single isomer, unassigned) [Example 55.03, cyclopropyl{4-[(1R or 1S)-1-(2-{[6-(1-{[(1RS)-2,2-difluorocyclopropyl]methyl}-1H-pyrazol-4-yl)-1H-benzimidazol-2-yl]amino}pyridin-4-yl)ethyl]piperazin-1-yl}methanone], the IC50 was found to be 0.564 nM.

For the compound `CC(C)(C)OC(=O)N1CCN(Cc2ccnc(Nc3nc4ccc(-c5cc(OCC6(C(F)(F)F)CC6)ncn5)cc4[nH]3)c2)CC1` [Example 158.01, tert-butyl 4-[(2-{[6-(6-{[1-(trifluoromethyl)cyclopropyl]methoxy}pyrimidin-4-yl)-1H-benzimidazol-2-yl]amino}pyridin-4-yl)methyl]piperazine-1-carboxylate], the 50% inhibitory concentration (IC50) was found to be 160 nM.

Regarding `Cc1cc(-c2ccc3nc(Nc4cc(C(C)N5CCN(C(=O)C6CC6)CC5)ccn4)[nH]c3c2)ncn1` (single isomer, unassigned) [Example 30.03.03.A, cyclopropyl{4-[(1R or 1S)-1-(2-{[6-(6-methylpyrimidin-4-yl)-1H-benzimidazol-2-yl]amino}pyridin-4-yl)ethyl]piperazin-1-yl}methanone], the half-maximal inhibitory concentration (IC50) is 3.06 nM.

For `CNc1cc(-c2ccc3nc(Nc4cc(CN5CCN(C(=O)C6CC6)CC5)ccn4)[nH]c3c2)ncn1` [Example 150.03, cyclopropyl(4-{[2-({6-[6-(methylamino)pyrimidin-4-yl]-1H-benzimidazol-2-yl}amino)pyridin-4-yl]methyl}piperazin-1-yl)methanone], the IC50 was 5.4 nM.

Consider `Cc1nccc(-c2ccc3nc(Nc4cc(C(C)N5CCN(C(=O)CC6CC6)CC5)ccn4)[nH]c3c2)n1` (racemic) [Example 24.04.04, (rac)-2-cyclopropyl-1-{4-[1-(2-{[6-(2-methylpyrimidin-4-yl)-1H-benzimidazol-2-yl]amino}pyridin-4-yl)ethyl]piperazin-1-yl}ethanone], for which the concentration for half-maximal inhibition (IC50) was found to be 14.4 nM.

Regarding `CC(c1ccnc(Nc2nc3ccc(-c4cnn(CC5CC5(F)F)c4)c(Cl)c3[nH]2)c1)N1CCN(C(=O)CC(F)(F)F)CC1` (single isomer, unassigned) [Example 70.01, 1-{4-[(1R or 1S)-1-(2-{[7-chloro-6-(1-{[(1RS)-2,2-difluorocyclopropyl]methyl}-1H-pyrazol-4-yl)-1H-benzimidazol-2-yl]amino}pyridin-4-yl)ethyl]piperazin-1-yl}-3,3,3-trifluoropropan-1-one], the half-maximal inhibitory concentration (IC50) was 0.88 nM.
